Source: patent US11173151B2, “Substituted triazole derivatives and uses thereof” (BAYER AKTIENGESELLSCHAFT, priority 2017, dated 2021)
Like-named read-outs stand apart in the source and are kept apart here.

How the values were obtained:
human V1a receptor = molecular target: T1, human V1a receptor (Homo sapiens, UniProt P37288); assay: Cellular in vitro assay for determining vasopressin receptor activity, V1a receptor cell line (CHO, aequorin luminescence); format: cell-based; details: for IC50: CHO cell line transfected with human V1a receptor, [Arg]-vasopressin at EC50 concentration, read-out: IC50 hV1a; for ratio IC50 hV2/hV1a: selectivity ratio IC50 hV2 / IC50 hV1a
T1 construct: expressed in transfected cells; host or cells: CHO K1 (ATCC), also stably transfected with a modified aequorin
T1 sequence (P37288 whole entry): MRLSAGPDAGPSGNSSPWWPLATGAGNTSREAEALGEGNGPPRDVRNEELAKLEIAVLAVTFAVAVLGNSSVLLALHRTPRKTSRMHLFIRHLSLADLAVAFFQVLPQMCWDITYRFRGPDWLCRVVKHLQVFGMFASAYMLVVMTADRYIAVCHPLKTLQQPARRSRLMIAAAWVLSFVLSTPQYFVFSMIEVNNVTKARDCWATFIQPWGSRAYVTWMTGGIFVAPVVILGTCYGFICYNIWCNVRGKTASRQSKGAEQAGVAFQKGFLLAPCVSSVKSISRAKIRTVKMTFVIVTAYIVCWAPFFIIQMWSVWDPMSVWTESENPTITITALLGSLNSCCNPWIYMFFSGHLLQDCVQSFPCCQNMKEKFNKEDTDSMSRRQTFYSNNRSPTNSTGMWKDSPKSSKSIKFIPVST
Summary of the method: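 Cells were plated the day before in medium containing 5 μg/ml coelenterazine and kept at 37° C. Compounds at various concentrations were then added for 10 minutes. Next, [Arg]-vasopressin at EC50 was applied and light output recorded at once, yielding IC50.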

human V2 receptor = molecular target: T2, human V2 receptor (Homo sapiens, UniProt P30518); assay: Cellular in vitro assay for determining vasopressin receptor activity, V2 receptor cell line (CHO, CRE-luciferase); format: cell-based; details: CHO cell line transfected with human V2 receptor, [Arg8]-vasopressin at EC50 concentration, read-out: IC50 hV2
T2 construct: expressed in transfected cells; host or cells: CHO K1 (ATCC) expressing firefly luciferase under a CRE-responsive promoter
T2 sequence (P30518 whole entry): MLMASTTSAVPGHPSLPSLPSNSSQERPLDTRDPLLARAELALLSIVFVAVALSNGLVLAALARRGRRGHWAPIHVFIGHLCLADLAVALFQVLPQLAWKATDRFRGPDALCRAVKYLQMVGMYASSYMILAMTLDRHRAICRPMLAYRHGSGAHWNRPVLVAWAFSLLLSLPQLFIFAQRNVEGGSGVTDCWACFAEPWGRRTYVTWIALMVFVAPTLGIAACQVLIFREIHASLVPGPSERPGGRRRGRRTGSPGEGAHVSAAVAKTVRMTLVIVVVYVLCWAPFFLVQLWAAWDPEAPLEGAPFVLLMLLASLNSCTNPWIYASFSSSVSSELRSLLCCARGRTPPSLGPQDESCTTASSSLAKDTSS

| SMILES | IC50 (human V1a receptor) | ratio IC50 hV2/hV1a (human V1a receptor) | IC50 (human V2 receptor) | IC50 (human V2 receptor; 3 hours) |
| --- | --- | --- | --- | --- |
| O=C(Nc1ncccc1-n1cnc(Cn2nc(-c3ccc(Cl)cc3)n(C[C@H](O)C(F)(F)F)c2=O)n1)C1CC(F)(F)C1 [Example 80, N-{3-[3-({3-(4-Chlorophenyl)-5-oxo-4-[(2S)-3,3,3-trifluoro-2-hydroxypropyl]-4,5-dihydro-1H-1,2,4-triazol-1-yl}methyl)-1H-1,2,4-triazol-1-yl]pyridin-2-yl}-3,3-difluorocyclobutanecarboxamide] | 6.65 nM | 270.7 |  | 1800 nM |
| O=C1CN(C(=O)c2nc(Cn3nc(-c4ccc(Cl)cc4)n(C[C@H](O)C(F)(F)F)c3=O)nn2-c2ncccc2C(=O)NCC(F)(F)F)CCN1 [Example 524, 2-{3-({3-(4-Chlorophenyl)-5-oxo-4-[(2S)-3,3,3-trifluoro-2-hydroxypropyl]-4,5-dihydro-1H-1,2,4-triazol-1-yl}methyl)-5-[(3-oxopiperazin-1-yl)carbonyl]-1H-1,2,4-triazol-1-yl}-N-(2,2,2-trifluoroethyl)pyridine-3-carboxamide] | 4650 nM | 0.7 | 3450 nM |  |
| O=C(NCC1CC1)c1cccnc1-n1cnc(Cn2nc(-c3ccc(Cl)cc3)n(C[C@H](O)C(F)(F)F)c2=O)n1 [Example 499, 2-[3-({3-(4-Chlorophenyl)-5-oxo-4-[(2S)-3,3,3-trifluoro-2-hydroxypropyl]-4,5-dihydro-1H-1,2,4-triazol-1-yl}methyl)-1H-1,2,4-triazol-1-yl]-N-(cyclopropylmethyl)pyridine-3-carboxamide] | 15 nM | 33.7 | 505 nM |  |
| O=C(Nc1ccccc1O)c1ccccc1-n1cnc(Cn2nc(-c3ccc(Cl)cc3)n(C[C@H](O)C(F)(F)F)c2=O)n1 [Example 247, 2-[3-({3-(4-Chlorophenyl)-5-oxo-4-[(2S)-3,3,3-trifluoro-2-hydroxypropyl]-4,5-dihydro-1H-1,2,4-triazol-1-yl}methyl)-1H-1,2,4-triazol-1-yl]-N-(2-hydroxyphenyl)benzamide] | 2.4 nM | 4.4 |  | 10.4 nM |
| O=C(NCC(O)C(F)(F)F)c1cccc(Cl)c1-n1cnc(Cn2nc(-c3ccc(Cl)cc3)n(C[C@@H](O)C(F)(F)F)c2=O)n1 (mixture of isomers) [Example 368, 3-Chloro-2-[3-({3-(4-chlorophenyl)-5-oxo-4-[(2R)-3,3,3-trifluoro-2-hydroxypropyl]-4,5-dihydro-1H-1,2,4-triazol-1-yl}methyl)-1H-1,2,4-triazol-1-yl]-N-[3,3,3-trifluoro-2-hydroxypropyl]benzamide] | 350 nM | 6.0 |  | 2100 nM |
| O=C(Nc1ncccc1-n1cnc(Cn2nc(-c3ccc(Cl)cc3)n(C[C@H](O)C(F)(F)F)c2=O)n1)c1ccncc1 [Example 157] | 3.55 nM | 859.2 |  | 3050 nM |
| Cc1ccccc1C(=O)Nc1ncccc1-n1cnc(Cn2nc(-c3ccc(Cl)cc3)n(C[C@H](O)C(F)(F)F)c2=O)n1 [Example 122] | 120 nM | 13.8 |  | 1650 nM |
| O=C(NC1CC1(F)F)c1cccc(Cl)c1-n1cnc(Cn2nc(-c3ccc(Cl)cc3)n(C[C@@H](O)C(F)(F)F)c2=O)n1 (mixture of isomers) [Example 395, 3-Chloro-2-[3-({3-(4-chlorophenyl)-5-oxo-4-[(2R)-3,3,3-trifluoro-2-hydroxypropyl]-4,5-dihydro-1H-1,2,4-triazol-1-yl}methyl)-1H-1,2,4-triazol-1-yl]-N-[2,2-difluorocyclopropyl]benzamide] | 82 nM | 62.8 |  | 5150 nM |
| CN(C(=O)c1ccccc1-n1cnc(Cn2nc(-c3ccc(Cl)cc3)n(C[C@H](O)C(F)(F)F)c2=O)n1)C1CCCCC1 [Example 329, 2-[3-({3-(4-Chlorophenyl)-5-oxo-4-[(2S)-3,3,3-trifluoro-2-hydroxypropyl]-4,5-dihydro-1H-1,2,4-triazol-1-yl}methyl)-1H-1,2,4-triazol-1-yl]-N-cyclohexyl-N-methylbenzamide] | 11.1 nM | 171.9 |  | 1900 nM |
| O=C(NCCC(F)(F)F)c1ccccc1-n1cnc(Cn2nc(-c3ccc(Cl)cc3)n(C[C@H](O)C(F)(F)F)c2=O)n1 [Example 182, 2-[3-({3-(4-Chlorophenyl)-5-oxo-4-[(2S)-3,3,3-trifluoro-2-hydroxypropyl]-4,5-dihydro-1H-1,2,4-triazol-1-yl}methyl)-1H-1,2,4-triazol-1-yl]-N-(3,3,3-trifluoropropyl)benzamide] | 24 nM | 85.4 |  | 2050 nM |
| Cc1ccc(NC(=O)c2ccccc2-n2cnc(Cn3nc(-c4ccc(Cl)cc4)n(C[C@H](O)C(F)(F)F)c3=O)n2)c(F)c1 [Example 309, 2-[3-({3-(4-Chlorophenyl)-5-oxo-4-[(2S)-3,3,3-trifluoro-2-hydroxypropyl]-4,5-dihydro-1H-1,2,4-triazol-1-yl}methyl)-1H-1,2,4-triazol-1-yl]-N-(2-fluoro-4-methylphenyl)benzamide] | 1.9 nM | 61.3 |  | 116 nM |

Continued by falling IC50 (human V1a receptor), values first:

| IC50 (human V1a receptor) | ratio IC50 hV2/hV1a (human V1a receptor) | IC50 (human V2 receptor) | IC50 (human V2 receptor; 3 hours) | SMILES |
| --- | --- | --- | --- | --- |
| 190 nM | 24.5 | 4650 nM |  | O=C(c1ncccc1-n1cnc(Cn2nc(-c3ccc(Cl)cc3)n(C[C@H](O)C(F)(F)F)c2=O)n1)N1CCC(O)(C(F)(F)F)C1 (mixture of isomers) [Example 442, 5-(4-Chlorophenyl)-2-{[1-(2-{[3-hydroxy-3-(trifluoromethyl)pyrrolidin-1-yl]carbonyl}pyridin-3-yl)-1H-1,2,4-triazol-3-yl]methyl}-4-[(2S)-3,3,3-trifluoro-2-hydroxypropyl]-2,4-dihydro-3H-1,2,4-triazol-3-one] |
| 190 nM | 16.6 | 3150 nM |  | O=C(NC1CC(F)(F)C1)c1cccc(Cl)c1-n1cnc(Cn2nc(-c3ccc(Cl)cc3)n(C[C@@H](O)C(F)(F)F)c2=O)n1 [Example 399, 3-Chloro-2-[3-({3-(4-chlorophenyl)-5-oxo-4-[(2R)-3,3,3-trifluoro-2-hydroxypropyl]-4,5-dihydro-1H-1,2,4-triazol-1-yl}methyl)-1H-1,2,4-triazol-1-yl]-N-(3,3-difluorocyclobutyl)benzamide] |
| 189 nM | 23.9 |  | 4500 nM | Cc1[nH]ncc1C(=O)Nc1ncccc1-n1cnc(Cn2nc(-c3ccc(Cl)cc3)n(C[C@H](O)C(F)(F)F)c2=O)n1 [Example 130] |
| 102 nM | 102.9 |  | 10500 nM | O=C(Nc1ncccc1-n1cnc(Cn2nc(-c3ccc(Cl)cc3)n(C[C@H](O)C(F)(F)F)c2=O)n1)[C@@H]1C[C@@H]1C(F)(F)F (racemic) [Example 79, N-{3-[3-({3-(4-Chlorophenyl)-5-oxo-4-[(2S)-3,3,3-trifluoro-2-hydroxypropyl]-4,5-dihydro-1H-1,2,4-triazol-1-yl}methyl)-1H-1,2,4-triazol-1-yl]pyridin-2-yl}-2-(trifluoromethyl)cyclopropanecarboxamide] |
| 98 nM | 6.8 |  | 665 nM | CC(C)C(=O)Nc1ncccc1-n1cnc(Cn2nc(-c3ccc(Cl)cc3)n(C[C@H](O)C(F)(F)F)c2=O)n1 [Example 151] |
| 90 nM | 17.2 |  | 1550 nM | CN1CC(C(=O)Nc2ncccc2-n2cnc(Cn3nc(-c4ccc(Cl)cc4)n(C[C@H](O)C(F)(F)F)c3=O)n2)CC1=O (stereo partly drawn) [Example 90] |
| 78 nM | 80.1 |  | 6250 nM | O=C(c1cccc(Cl)c1-n1cnc(Cn2nc(-c3ccc(Cl)cc3)n(C[C@H](O)C(F)(F)F)c2=O)n1)N1CCOCC1 [Example 382, 2-({1-[2-Chloro-6-(morpholin-4-ylcarbonyl)phenyl]-1H-1,2,4-triazol-3-yl}methyl)-5-(4-chlorophenyl)-4-[(2S)-3,3,3-trifluoro-2-hydroxypropyl]-2,4-dihydro-3H-1,2,4-triazol-3-one] |
| 51 nM | 27.5 | 1400 nM |  | NC(CNC(=O)c1ncccc1-n1cnc(Cn2nc(-c3ccc(Cl)cc3)n(C[C@H](O)C(F)(F)F)c2=O)n1)C(F)(F)F (mixture of isomers) [Example 429, N-[(2R)-2-Amino-3,3,3-trifluoropropyl]-3-[3-({3-(4-chlorophenyl)-5-oxo-4-[(2S)-3,3,3-trifluoro-2-hydroxypropyl]-4,5-dihydro-1H-1,2,4-triazol-1-yl}methyl)-1H-1,2,4-triazol-1-yl]pyridine-2-carboxamide] |
| 45 nM | 5.8 |  | 260 nM | O=C(NCC(O)C(F)(F)F)c1cccc(Cl)c1-n1cnc(Cn2nc(-c3ccc(Cl)cc3)n(C[C@H](O)C(F)(F)F)c2=O)n1 (mixture of isomers) [Example 367, 3-Chloro-2-[3-({3-(4-chlorophenyl)-5-oxo-4-[(2S)-3,3,3-trifluoro-2-hydroxypropyl]-4,5-dihydro-1H-1,2,4-triazol-1-yl}methyl)-1H-1,2,4-triazol-1-yl]-N-[3,3,3-trifluoro-2-hydroxypropyl]benzamide] |
| 3.55 nM | 91.5 |  | 325 nM | CC1CCCCC1NC(=O)c1ccccc1-n1cnc(Cn2nc(-c3ccc(Cl)cc3)n(C[C@H](O)C(F)(F)F)c2=O)n1 (mixture of isomers) [Example 319, 2-[3-({3-(4-Chlorophenyl)-5-oxo-4-[(2S)-3,3,3-trifluoro-2-hydroxypropyl]-4,5-dihydro-1H-1,2,4-triazol-1-yl}methyl)-1H-1,2,4-triazol-1-yl]-N-(2-methylcyclohexyl)benzamide] |
